From PubChem BioAssay (NCI)
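Method: 48-hour compound exposure of cells in 96-well plates, five concentrations, linear interpolation of endpoints. TGI is the concentration that stops growth completely.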

Columns and labels:
Assay in all cases: NCI anticancer screen, dose series, 48 h
[1] = system: SNB-19 CNS
[2] = system: OVCAR-3 ovarian
[3] = system: IGROV1 ovarian
[4] = system: HT29 colon
[5] = system: MALME-3M melanoma
[6] = system: M14 melanoma
[7] = system: OVCAR-8 ovarian
[8] = system: TK-10 renal
[9] = system: UACC-257 melanoma
[10] = system: SN12C renal
[11] = system: NCI-H23 lung
[12] = system: CCRF-CEM leukemia
[13] = system: CAKI-1 renal
[14] = system: MCF7 breast
[15] = system: HCT-15 colon
[16] = system: HCC-2998 colon
[17] = system: K-562 leukemia

Row | Compound | TGI [1] [µM] | TGI [2] [µM] | TGI [3] [µM] | TGI [4] [µM] | TGI [5] [µM] | TGI [6] [µM] | TGI [7] [µM] | TGI [8] [µM] | TGI [9] [µM] | TGI [10] [µM] | TGI [11] [µM] | TGI [12] [µM] | TGI [13] [µM] | TGI [14] [µM] | TGI [15] [µM] | TGI [16] [µM] | TGI [17] [µM]
1 | CCOC(=O)/C(=C\NC(C)(C)C)c1nc2ccccc2[nH]1 | > 100 | 35 | 69.4 | 42.6 | 39.4 | 39.7 | 64.2 | 47.6 | 35.2 | 75.6 | 35.9 | 39.5 | 96.2 | 43.5 | > 100 | – | –
2 | CC(C)(C)C1CCC2c3c([nH]c4ncccc34)C3C(=O)N(c4ccccc4)C(=O)C3C2C1 (stereo not drawn) | > 100 | > 100 | > 100 | > 100 | > 100 | > 100 | > 100 | > 100 | > 100 | > 100 | > 100 | > 100 | > 100 | – | > 100 | > 100 | > 100
3 | O=C(O)[C@@H]1OCCOCCO[C@@H](C(=O)O)[C@H](C(=O)O)OCCOCCO[C@H]1C(=O)O | > 100 | > 100 | > 100 | > 100 | > 100 | > 100 | > 100 | > 100 | > 100 | > 100 | > 100 | > 73.6 | > 100 | – | > 100 | > 100 | > 100
4 | C/C(=N\NC(=O)C[N+](C)(C)C)c1sc(-c2cccnc2)nc1C | – | > 100 | > 100 | > 100 | > 100 | > 100 | > 100 | > 100 | > 100 | – | > 100 | > 100 | – | – | – | > 100 | > 100
5 | [N-]=[N+]=NC1(c2ccccc2)C(=O)C(Cl)=C(c2ccccc2)N(c2ccccc2)C1=O (stereo not drawn) | > 100 | > 100 | > 100 | > 100 | > 100 | > 100 | > 100 | > 100 | > 100 | > 100 | > 100 | > 100 | > 100 | – | > 100 | > 100 | > 100
6 | O=C1N2Cc3c4ccc5c3CN3C(=O)N6Cc7c(ccc(c7CN1C6(c1ccccc1)C23c1ccccc1)OCCOCCOc1cc(Br)c(Br)cc1OCCOCCO4)OCCOCCOc1cc(Br)c(Br)cc1OCCOCCO5 (stereo not drawn) | > 100 | > 100 | > 100 | > 100 | > 100 | > 100 | > 100 | > 100 | > 100 | > 100 | > 100 | > 100 | > 100 | – | 67.7 | > 100 | > 100
7 | C[C@@H](CC(=O)O)OC1OC(COC(=O)C(C)(C)C)C(OC(=O)C(C)(C)C)C(OC(=O)C(C)(C)C)C1OC(=O)C(C)(C)C (stereo partly drawn) | 98.2 | > 100 | > 100 | > 100 | – | > 100 | > 100 | > 100 | > 100 | > 100 | 93.5 | 55.9 | > 100 | > 100 | 84.9 | > 100 | > 100
8 | COC(=O)C1CCC(=O)N1CN(C(C)=O)c1cc(OC)ccc1OC (stereo not drawn) | > 100 | > 100 | > 100 | > 100 | > 100 | > 100 | > 100 | > 100 | > 100 | > 100 | > 100 | – | > 100 | > 100 | > 100 | – | > 100
9 | CCC(=O)NI1OC(=O)c2ccccc21 | – | > 100 | > 100 | > 100 | – | > 100 | > 100 | > 100 | > 100 | > 100 | > 100 | > 100 | 55.2 | > 100 | > 100 | > 100 | > 100
10 | CCOC(=O)C(C)Sc1nnc(COc2ccc(Cl)cc2)n1-c1ccccc1 (stereo not drawn) | 40.1 | 33.5 | 50.3 | 31.9 | 63.6 | 30.9 | 60 | 69.9 | 47.3 | 32.9 | 42.7 | 34 | 31.7 | – | 27.8 | 49 | 49.9
11 | O=C(Cc1nc2sc3c(c2c(=O)[nH]1)CCCC3)Nc1ccccc1 | > 100 | > 100 | > 100 | > 100 | > 100 | > 100 | > 100 | > 100 | – | > 100 | > 100 | > 100 | > 100 | – | > 100 | > 100 | > 100
12 | COC(=O)c1cc(OS(=O)(=O)C(F)(F)F)c(=O)n2c1CCCC2 | > 100 | – | > 100 | > 100 | > 100 | > 100 | > 100 | > 100 | > 100 | > 100 | > 100 | > 100 | > 100 | > 100 | > 100 | – | –
13 | CC(C)(C)c1cc2c(c(C(C)(C)C)c1O)CC(=O)O2 | > 100 | 50.7 | 89.3 | > 100 | – | 62.5 | > 100 | > 100 | 75.7 | > 100 | 59.3 | 73.5 | – | > 100 | > 100 | 96.7 | > 100
14 | CCO/S(=N/S(=O)(=O)c1ccccc1)c1ccccc1[N+](=O)[O-] (stereo not drawn) | > 100 | > 100 | > 100 | > 100 | > 100 | > 100 | > 100 | – | > 100 | > 100 | > 100 | > 100 | > 100 | – | > 100 | > 100 | > 100
15 | N#COc1ccc(Oc2ccccc2)cc1 | > 100 | > 100 | > 100 | > 100 | > 100 | > 100 | > 100 | > 100 | > 100 | > 100 | > 100 | 60 | > 100 | – | > 100 | > 100 | > 100
